Measurements: patent EP1551873B1, “AGONISTS AND ANTAGONISTS OF THE HUMAN ODORANT RECEPTOR OR17-4 AND USES THEREOF” (Symrise AG, priority 2002, dated 2004)

Tests used:
menschliche Nase = assay: Odour perception test on about 100 human subjects (agonist, antagonist, agonist again); assay type: in vivo
From the text: An ca. 100 Probanden wurde die Wirkung des Agonisten (Bourgeonal, "Duft A") und des Antagonisten (n-Undecanal, "Duft B") getestet. Dabei wurde zuerst an Duft A (1:100 verdünnt) gerochen, dann wurde in kurzem zeitlichen Abstand (1 - 3 s) an Duft B (ebenfalls 1:100 verdünnt) gerochen, anschließend wurde direkt wieder an Duft A gerochen. Die Probanden wurden nach ihrem Riecheindruck befragt: • Alle 100 Probanden konnten beim jeweils ersten Riechen spezifisch Duft A und B wahrnehmen und unterscheiden. Ca. 90 der 100 Testpersonen beschrieben, dass beim zweiten Riechen an Duft A kein Dufteindruck ausgelöst wurde. Nach ca. 1 Minute war Duft A bereits wieder riechbar.

hOR17-40 = target: T1, hOR17-40 (Homo sapiens, UniProt P47881); assay: Ca2+ imaging of HEK293 cells transfected with pOR17-40; assay type: cell-based
T1 construct: pOR17-40 (Ausschnitt) mit der vollständigen cDNA von hOR17-40; expressed in transfected cells; host or cells: HEK293, plasmid pOR17-40
T1 sequence (P47881 1-315): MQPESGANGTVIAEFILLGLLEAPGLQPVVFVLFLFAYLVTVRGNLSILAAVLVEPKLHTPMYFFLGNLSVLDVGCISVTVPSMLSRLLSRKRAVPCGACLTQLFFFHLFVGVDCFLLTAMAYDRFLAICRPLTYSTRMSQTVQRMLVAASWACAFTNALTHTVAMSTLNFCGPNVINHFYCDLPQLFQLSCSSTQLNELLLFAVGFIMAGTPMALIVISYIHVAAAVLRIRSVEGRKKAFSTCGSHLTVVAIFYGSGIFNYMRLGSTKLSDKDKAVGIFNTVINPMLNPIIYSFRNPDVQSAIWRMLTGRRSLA

humane Spermien [1] = assay: Sperm chemotaxis flat capillary assay (cell density in capillary); assay type: cell-based, human
Method: (§1) Gefrorene Samenproben von fünf gesunden Spendern wurden aus der California Cryobank (Los Angeles, CA, USA) erhalten und für Bioassays gemäß den World Health Organization-Richtlinien (World Health Organization: Laboratory for the examination of human serum and semen-cervical mucus interaction, Cambridge University Press (1993)) vorbereitet. Nachdem die Suspensionen auf 37 °C für 10 Minuten gebracht worden waren, wurde jede Probe in HEPES-gepufferter humaner Tubarflüssigkeit (HTF; Irvine Scientific, Santa Ana, CA, USA) überführt und auf 10^7 Zellen/ml eingestellt. Die Lösungen wurden dann bei 37 °C in einer 5 %-igen CO2-Atmosphäre aufbewahrt und innerhalb von 30 Minuten für Experimente verwendet (P. Quinn, Journal of Assisted Reproductive Genetics 12, 97-105 (1995)). Die Reaktionen von Sperma auf Bourgeonal wurde (a) durch computer-assisted video motion analysis (CAVMA) gemessen, um Veränderungen in der Schwimmgeschwindigkeit (Spermaaktivierung) zu detektieren, und (b) in einem flat capillary-Assay für die Chemotaxis in der Nähe einer Diffusionsmaterialquelle untersucht. Für jede Test-oder Kontroll-Behandlung wurden fünf wiederholte Experimente unter Verwendung von Sperma der fünf Spender durchgeführt. Die Daten der Bioassays wurden statistisch durch Ein-Weg-Varianzanalyse (ANOVA) unter Verwendung eines post-hoc Scheffe-Tests (R. W. Day and G. P. Quinn, Ecol. Monogr. 59, 433-463 (1989)) analysiert. Eine Bonferroni-Korrektur wurde zum Angleichen der α-Levels für multiple Vergleiche verwendet.
Zur Untersuchung der Spermien-Chemotaxis wurden Kammern mit vier getrennten Kompartimenten verwendet, wobei die Kapillar-Methode von Adler (J. Adler, Science 153, 708-716 (1966); J. Adler, Journal of General Microbiology 74, 77-91 (1973)) modifiziert wurde. Jedes Kompartiment bestand aus zwei durch einen Kanal verbundenen Vertiefungen. Die Spermienproben (10^6 Zellen/ml) wurden jeweils in den Vertiefungen vorgelegt. Ein flaches 6 µl-Mikrokapillarröhrchen (Drummond Scientific Co.), das entweder Test- oder Kontrolllösung enthielt, wurde in den Kanal eingeführt, wobei seine beiden Enden die frischen Spermien-Suspensionen innerhalb der zwei Vertiefungen berührten. Nach vier Stunden Inkubation bei 37 °C wurden die Inhalte jeder Kapillare in die Vertiefung eines Toxoplasmose-Objektträgers transferiert, hitzefixiert und mit 0,1 Acridin-Orange 1 Minute lang gefärbt. Zellzählungen wurden dann unter Verwendung eines Olympus-BH2-Mikroskopes, das für Phasenkontrast- und Epifluoreszenz-Applikationen ausgerüstet war (J. A. Riffell, P. J. Krug, R. K. Zimmer, Journal of Experimental Biology 205, 1439-1450 (2002); C. C. Gee and R. K. Zimmer-Faust, Journal of Experimental Biology 200, 3185-3192 (1997)), bei 67-facher Vergrößerung durchgeführt.
Zur Bestimmung der Chemoattraktion von Spermien und des Effekts eines Antagonisten wurde Bourgeonal allein bei 10^-7 M und in Kombination mit 10^-6, 10^-7, 10^-8 oder 10^-9 M n-Undecanal getestet. Während der Durchführung der Chemotaxis-Bioassays wurde das Spermienverhalten innerhalb eines Bereiches von 300 µm vor jeder Kapillarspitze 30 Sekunden lang auf Video aufgenommen. Die Videoaufnahme begann 10 bis 15 Minuten nach dem Experimentbeginn, um die Bildung eines chemischen Gradienten zu ermöglichen. Die Spermien-Orientierung zum Gradienten hin wurde unter Verwendung von CAVMA quantifiziert. […]

humane Spermien [2] = assay: Sperm activation bioassay: swimming speed by computer-assisted video motion analysis (CAVMA); assay type: cell-based, human
Method: as §1
Zur Untersuchung der Spermien-Aktivierung wurden Bioassays für die Schwimmgeschwindigkeit bei 37 °C durchgeführt. Spermien wurden sanft einer Kontroll- oder Testlösung einheitlicher Konzentration zugefügt. Die Bilder von Spermien (3,0 x 10^3 Zellen/ml) wurden dann unter Verwendung einer Videokamera (NEC Modell TI 23A), die auf einem Olympus IX70-Lichtmikroskop montiert war, bei 90-facher Vergrößerung aufgenommen. Um mögliche Artefakte durch Reibungskräfte zu minimieren, besaß die Kamera eine 100 µm Feldtiefe und fokussierte auf eine Region, die annäherend 2 mm von der nächsten Oberfläche entfernt war. Videobilder von Spermien wurden mit 30 Bildern/Sekunde digitalisiert und über 10-Sekundenintervalle unter Verwendung eines CAVMA-Systemes (Motion Analysis Corporation, Modell VP 320, Expert Vision und Benutzter-Software), verbunden mit einer Sun SPARC 2 Computer-Arbeitsstation bearbeitet (J. A. Riffell, P. J. Krug, R. K. Zimmer, Journal of Experimental Biology 205, 1439-1450 (2002)). Die Schwimmgeschwindigkeit wurde auf einer Bild-zu-Bild-Basis bestimmt und danach über jeden einzelnen zurückgelegten Weg gemittelt. Um zu vermeiden, sich horizontal anstatt vertikal bewegende Zellen zu messen, wurden kurze Wege mit weniger als 11 Bildern verworfen, bei denen sich die Spermien um mehr als 20 % in ihrer scheinbaren Größe veränderten.

humane Spermien [3] = assay: Sperm orientation towards capillary tip (CAVMA, circular statistics, Rayleigh test); assay type: cell-based, human; conditions: Bourgeonal 10^-8 M and higher
From the text: Zur Bestimmung der Chemoattraktion von Spermien und des Effekts eines Antagonisten wurde Bourgeonal allein bei 10^-7 M und in Kombination mit 10^-6, 10^-7, 10^-8 oder 10^-9 M n-Undecanal getestet. Während der Durchführung der Chemotaxis-Bioassays wurde das Spermienverhalten innerhalb eines Bereiches von 300 µm vor jeder Kapillarspitze 30 Sekunden lang auf Video aufgenommen. Die Videoaufnahme begann 10 bis 15 Minuten nach dem Experimentbeginn, um die Bildung eines chemischen Gradienten zu ermöglichen. Die Spermien-Orientierung zum Gradienten hin wurde unter Verwendung von CAVMA quantifiziert. Durch Anwendung zirkulärer Statistiken wurde die mittlere Vektorlänge (r) und die Schwimmrichtung berechnet, um das Bewegungsmuster der untersuchten Spermien zu beschreiben. Der Winkel der Spermienorientierung wurde in Bezug auf einen Ursprung angegeben, der als die kürzeste Verbindung zwischen jeder individuellen Zelle und der Kapillarenspitze (0°) definiert wurde. Um zu bestimmen, ob die Zellbewegung innerhalb des chemischen Gradienten nicht-zufällig war, wurde jede mittlere Ausrichtung mit einer uniformen zirkulären Verteilung unter Verwendung eines unimodalen Rayleigh-Tests (J. H. Zar, Biostatistical Analysis (1984)) verglichen.

[4] = co-applied with 10^-6, 10^-7 or 10^-8 M n-Undecanal, P > 0,99

Structure (SMILES) | Testpersonen ohne Dufteindruck beim zweiten Riechen an Duft A (menschliche Nase; Duft B 1:100 sniffed 1 - 3 s after Duft A 1:100, then Duft A again) | Zeit, nach der Duft A wieder riechbar war (menschliche Nase; after sniffing Duft B) | inhibitorischer Effekt auf das Helional-induzierte Antwortmuster (hOR17-40; pre-incubation) | Effekt auf das Spermienverhalten, Zelldichte (humane Spermien [1]; 10^-7 M alone, P > 0,99) | Zelldichte als Antwort auf 10^-7 M Bourgeonal relativ zur HTF-Kontrolle (humane Spermien [1]; [4]) | Effekt auf das Spermienverhalten, Schwimmgeschwindigkeit (humane Spermien [2]; 10^-7 M alone, P > 0,99) | Schwimmgeschwindigkeit als Antwort auf 10^-7 M Bourgeonal relativ zur HTF-Kontrolle (humane Spermien [2]; [4]) | Zellbewegungsmuster in der Nähe der Kapillarspitzen (humane Spermien [3]) | mittlere Vektorlänge (r), Rayleigh-Test (humane Spermien [3]; all comparisons) | Ca^2+-Signale (hOR17-40) (hOR17-40) | Konzentration ohne weiteren Anstieg der Zelldichte (humane Spermien [1]) | EC50 (humane Spermien [1]; Homo sapiens, Sperm, 4 h, 37 °C, read-out: ED50 (Konzentration, die die halbmaximale Antwort hervorruft), Zelldichte) [nM] | Konzentrationen mit signifikanten Antworten im Verhältnis zur HTF-Kontrolle, Zelldichte (humane Spermien [1]; Scheffé test P ≤ 0,03) | Konzentration ohne weiteren Anstieg der Schwimmgeschwindigkeit (humane Spermien [2]) | EC50 (humane Spermien [2]; Homo sapiens, Sperm, 37 °C, read-out: ED50 (Konzentration, die die halbmaximale Antwort hervorruft), Schwimmgeschwindigkeit) [nM] | Konzentrationen mit signifikanten Antworten im Verhältnis zur HTF-Kontrolle, Schwimmgeschwindigkeit (humane Spermien [2]; Scheffé test P ≤ 0,03)
CCCCCCCCCCC=O [n-Undecanal] | Ca. 90 der 100 Testpersonen | ca. 1 Minute | keinen inhibitorischen Effekt | keinen messbaren Effekt | nicht signifikant erhöht | keinen messbaren Effekt | nicht signifikant erhöht | – | – | – | – | – | – | – | – | –
CC(C)(C)c1ccc(CCC=O)cc1 [Bourgeonal] | – | – | – | – | – | – | – | signifikant nicht-zufällig | ≥ 0,45 | keine Ca^2+-Signale | > 10^-6 M | 30 | ≥ 10^-8 M | > 10^-6 M | 30 | ≥ 10^-8 M
